Reference: patent US8962648B2, “Tricyclic compounds and PBK inhibitors containing the same” (OncoTherapy Science, Inc., priority 2010, dated 2015)
Structures can show the parent of a compound that is named as a salt. Where two headings read alike, the source gives them in different places.

Assays:
BT-549 cells = experiment: Cell-based assay, cellular growth (Cell Counting Kit-8, 72 hours); settings: Homo sapiens, BT549 cells
Procedure: (§1) 100 micro-L of cell suspension was seeded onto 96-well microtiter plate (ViewPlate-96FTC, PerkinElmer). […] Cellular growth was determined using Cell Counting Kit-8 (DOJINDO) at 72 hours after the exposure of the candidate inhibitors. […] Accurate IC50 values were calculated as described previously.

T47D cells = experiment: as above; settings: Homo sapiens
Procedure: as §1

A549 cells = experiment: as above; settings: Homo sapiens
Procedure: as §1

HT-1197 cells = experiment: Cell-based assay, cellular growth (Cell Counting Kit-8, 72 hours), PBK-negative control cells; settings: Homo sapiens
Procedure: as §1

PBK = PBK (Homo sapiens (Human), UniProt Q96KB5); experiment: Kinase assay (IMAP fluorescence polarization, FITC-labeled histone H3 peptide); type: biochemical
Sequence of PBK (Q96KB5 whole entry): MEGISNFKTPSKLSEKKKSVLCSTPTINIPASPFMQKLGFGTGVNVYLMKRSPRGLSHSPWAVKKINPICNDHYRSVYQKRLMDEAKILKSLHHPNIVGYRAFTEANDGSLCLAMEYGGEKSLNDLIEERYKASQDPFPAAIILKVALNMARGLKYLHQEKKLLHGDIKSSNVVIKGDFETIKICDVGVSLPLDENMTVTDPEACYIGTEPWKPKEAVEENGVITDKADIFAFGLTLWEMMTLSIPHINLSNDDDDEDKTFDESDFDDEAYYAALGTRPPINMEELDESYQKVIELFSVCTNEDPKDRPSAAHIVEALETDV
Procedure: PBK activity was determined in the presence or absence of compounds using fluorescein isothiocyanate-labeled (FITC-labeled) histone H3 peptide as a substrate. […] The serially diluted compounds, 0.8 ng/micro-L PBK (Carna Biosciences) and 100 nM FITC-labeled histone H3 peptide were reacted in a reaction buffer (20 mM HEPES, 0.01% Tween-20, 0.3 mM MgCl2, 2 mM dithiothreitol, 50 micro-M ATP, pH 7.4) at room temperature for 1 hour. The reaction was stopped by the addition of three fold assay volume of progressive binding solution. […] IC50 values were calculated by nonlinear four parameter fit using SigmaPlot, version 10.0 (Systat Software, Inc.).

[1] = PBK 0.8 ng/micro-L, 50 micro-M ATP, 100 nM FITC-labeled histone H3 peptide, room temperature 1 hour

Structure (SMILES) | IC50 (BT-549 cells) | IC50 (T47D cells; T47D, 72 h) | IC50 (A549 cells; A549, 72 h) | IC50 (PBK; [1]) | IC50 (HT-1197 cells; HT1197, 72 h) | IC50 (T47D cells) | IC50 (A549 cells) | IC50 (HT-1197 cells; HT1197 cells (PBK-negative control)) | IC50 (PBK)
COc1ccc2[nH]c(=O)c3sccc3c2c1-c1ccc(C(C)CN)c(F)c1 (stereo not drawn) [Compound 1179, 9-(4-(1-aminopropan-2-yl)-3-fluorophenyl)-8-methoxythieno[2,3-c]quinolin-4(5H)-one hydrochloride] | 450 nM | 860 nM | 630 nM | 3 nM | 1900 nM | – | – | – | –
C[C@@H](CN(C)C)c1ccc(-c2c(O)ccc3[nH]c(=O)c4sccc4c23)cc1 [Compound 1188, (R)-9-(4-(1-(dimethylamino)propan-2-yl)phenyl)-8-hydroxythieno[2,3-c]quinolin-4(5H)-one hydrochloride] | 160 nM | – | – | – | – | 290 nM | 160 nM | 430 nM | 2.5 nM
Cc1cc(O)c(-c2ccc(C(C)CN(C)C)c(F)c2)c2c1[nH]c(=O)c1sccc12 (stereo not drawn) [Compound 1193, 9-(4-(1-(dimethylamino)propan-2-yl)-3-fluorophenyl)-8-hydroxy-6-methylthieno[2,3-c]quinolin-4(5H)-one hydrochloride] | 140 nM | 240 nM | 130 nM | – | 330 nM | – | – | – | 46 nM
Cc1cc(O)c(-c2ccc(CCC#N)cc2)c2c1[nH]c(=O)c1sccc12 [Compound 1226, 3-(4-(8-hydroxy-6-methyl-4-oxo-4,5-dihydrothieno[2,3-c]quinolin-9-yl)phenyl)propanenitrile] | 590 nM | 1200 nM | 490 nM | 92 nM | 1300 nM | – | – | – | –
NCC(c1ccc(-c2c(O)ccc3[nH]c(=O)c4sccc4c23)cc1)C1CCCC1 (stereo not drawn) [Compound 1236, 9-(4-(2-amino-1-cyclopentylethyl)phenyl)-8-hydroxythieno[2,3-c]quinolin-4(5H)-one] | 510 nM | 800 nM | 460 nM | 4.6 nM | 1000 nM | – | – | – | –
COc1ccc2[nH]c(=O)c3sccc3c2c1-c1ccc(C(CN)C2CCCC2)cc1 (stereo not drawn) [Compound 1239, 9-(4-(2-amino-1-cyclopentylethyl)phenyl)-8-methoxythieno[2,3-c]quinolin-4(5H)-one hydrochloride] | 1500 nM | 1100 nM | 890 nM | – | 1700 nM | – | – | – | 23 nM
Cc1cc(O)c(-c2ccc(CC(C)N)cc2)c2c1[nH]c(=O)c1sccc12 (stereo not drawn) [Compound 1242, 9-(4-(2-aminopropyl)phenyl)-8-hydroxy-6-methylthieno[2,3-c]quinolin-4(5H)-one hydrochloride] | 110 nM | 150 nM | 120 nM | – | 420 nM | – | – | – | 37 nM
CC(C)C(CN)c1ccc(-c2c(O)ccc3[nH]c(=O)c4sccc4c23)cc1 (stereo not drawn) [Compound 1252, 9-(4-(1-amino-3-methylbutan-2-yl)phenyl)-8-hydroxythieno[2,3-c]quinolin-4(5H)-one] | 250 nM | 210 nM | 160 nM | 1.4 nM | 420 nM | – | – | – | –
COc1ccc2[nH]c(=O)c3sccc3c2c1-c1ccc(C(CN)C(C)C)cc1 (stereo not drawn) [Compound 1253, 9-(4-(1-amino-3-methylbutan-2-yl)phenyl)-8-methoxythieno[2,3-c]quinolin-4(5H)-one hydrochloride] | 1500 nM | 870 nM | 760 nM | – | 1900 nM | – | – | – | 4.1 nM
COc1cc(C)c2[nH]c(=O)c3sccc3c2c1-c1ccc(C(C)CN)c(F)c1 (stereo not drawn) [Compound 1273, 9-(4-(1-aminopropan-2-yl)-3-fluorophenyl)-8-methoxy-6-methylthieno[2,3-c]quinolin-4(5H)-one hydrochloride] | 73 nM | 170 nM | 71 nM | – | 200 nM | – | – | – | 40 nM
COc1cc(C)c2[nH]c(=O)c3sccc3c2c1-c1ccc(C(CN)C(C)C)c(F)c1 (stereo not drawn) [Compound 1283, 9-(4-(1-amino-3-methylbutan-2-yl)-3-fluorophenyl)-8-methoxy-6-methylthieno[2,3-c]quinolin-4(5H)-one hydrochloride] | 250 nM | 560 nM | 560 nM | 47 nM | 530 nM | – | – | – | –

More lines, in order of falling IC50 (BT-549 cells), values ahead:

IC50 (BT-549 cells) | IC50 (T47D cells; T47D, 72 h) | IC50 (A549 cells; A549, 72 h) | IC50 (PBK; [1]) | Structure (SMILES) | IC50 (HT-1197 cells; HT1197, 72 h) | IC50 (T47D cells) | IC50 (A549 cells) | IC50 (HT-1197 cells; HT1197 cells (PBK-negative control)) | IC50 (PBK)
230 nM | 380 nM | 360 nM | 19 nM | NCCc1ccc(-c2c(O)cc(Br)c3[nH]c(=O)c4sccc4c23)cc1F [Compound 1213, 9-(4-(2-aminoethyl)-3-fluorophenyl)-6-bromo-8-hydroxythieno[2,3-c]quinolin-4(5H)-one hydrochloride] | 1700 nM | – | – | – | –
210 nM | 460 nM | 280 nM | 57 nM | COc1cc(C)c2[nH]c(=O)c3sccc3c2c1-c1ccc(CCN)c(F)c1 [Compound 1216, 9-(4-(2-aminoethyl)-3-fluorophenyl)-8-methoxy-6-methylthieno[2,3-c]quinolin-4(5H)-one hydrochloride] | 640 nM | – | – | – | –
190 nM | 190 nM | 200 nM | 1.3 nM | CNC[C@H](C)c1ccc(-c2c(O)ccc3[nH]c(=O)c4sccc4c23)cc1 [Compound 1187, (R)-8-hydroxy-9-(4-(1-(methylamino)propan-2-yl)phenyl)thieno[2,3-c]quinolin-4(5H)-one hydrochloride] | 320 nM | – | – | – | –
160 nM | 1900 nM | 710 nM | 15 nM | CC(CCl)NS(=O)(=O)c1ccc(-c2c(O)ccc3[nH]c(=O)c4sccc4c23)cc1 (stereo not drawn) [Compound 1204, N-(1-chloropropan-2-yl)-4-(8-hydroxy-4-oxo-4,5-dihydrothieno[2,3-c]quinolin-9-yl)benzenesulfonamide] | 15000 nM | – | – | – | –
150 nM | 330 nM | 160 nM | 39 nM | Cc1cc(O)c(-c2ccc(C(C)(C)CN)cc2)c2c1[nH]c(=O)c1sccc12 [Compound 1228, 9-(4-(1-amino-2-methylpropan-2-yl)phenyl)-8-hydroxy-6-methylthieno[2,3-c]quinolin-4(5H)-one hydrochloride] | 810 nM | – | – | – | –
110 nM | 210 nM | 230 nM | 50 nM | CNCC(c1ccc(-c2c(O)cc(C)c3[nH]c(=O)c4sccc4c23)cc1)C(C)C (stereo not drawn) [Compound 1285, 8-hydroxy-6-methyl-9-(4-(3-methyl-1-(methylamino)butan-2-yl)phenyl)thieno[2,3-c]quinolin-4(5H)-one] | 280 nM | – | – | – | –
100 nM | 180 nM | 170 nM | 5.5 nM | NCCc1ccc(-c2c(O)cc(Cl)c3[nH]c(=O)c4sccc4c23)cc1F [Compound 1219, 9-(4-(2-aminoethyl)-3-fluorophenyl)-6-chloro-8-hydroxythieno[2,3-c]quinolin-4(5H)-one hydrochloride] | 880 nM | – | – | – | –
66 nM | 98 nM | 45 nM | 18 nM | Cc1cc(O)c(-c2ccc(C(CN)C(C)C)cc2)c2c1[nH]c(=O)c1sccc12 (stereo not drawn) [Compound 1274, 9-(4-(1-amino-3-methylbutan-2-yl)phenyl)-8-hydroxy-6-methylthieno[2,3-c]quinolin-4(5H)-one] | 180 nM | – | – | – | –
65 nM | 84 nM | 140 nM | 4.7 nM | Cc1cc(O)c(-c2ccc(CCN)c(F)c2)c2c1[nH]c(=O)c1sccc12 [Compound 1217, 9-(4-(2-aminoethyl)-3-fluorophenyl)-8-hydroxy-6-methylthieno[2,3-c]quinolin-4(5H)-one hydrochloride] | 480 nM | – | – | – | –
64 nM | 73 nM | 120 nM | 19 nM | Cc1cc(O)c(-c2ccc(CCN)cc2)c2c1[nH]c(=O)c1sccc12 [Compound 1191, 9-(4-(2-aminoethyl)phenyl)-8-hydroxy-6-methylthieno[2,3-c]quinolin-4(5H)-one hydrochloride] | 480 nM | – | – | – | –
53 nM | 120 nM | 46 nM | 20 nM | COc1cc(Cl)c2[nH]c(=O)c3sccc3c2c1-c1ccc([C@@H](C)CN)cc1 [Compound 1201, (R)-9-(4-(1-aminopropan-2-yl)phenyl)-6-chloro-8-methoxythieno[2,3-c]quinolin-4(5H)-one hydrochloride] | 140 nM | – | – | – | –
24 nM | 38 nM | 27 nM | 17 nM | C[C@@H](CN)c1ccc(-c2c(O)cc(Br)c3[nH]c(=O)c4sccc4c23)cc1 [Compound 1176, (R)-9-(4-(1-aminopropan-2-yl)phenyl)-6-bromo-8-hydroxythieno[2,3-c]quinolin-4(5H)-one hydrochloride] | 100 nM | – | – | – | –
15 nM | 19 nM | 21 nM | 5.1 nM | Cc1cc(O)c(-c2ccc(C(C)CN)c(F)c2)c2c1[nH]c(=O)c1sccc12 (stereo not drawn) [Compound 1190, 9-(4-(1-aminopropan-2-yl)-3-fluorophenyl)-8-hydroxy-6-methylthieno[2,3-c]quinolin-4(5H)-one hydrochloride] | 110 nM | – | – | – | –
